{
  "source": "patent US9879006B2",
  "about": "“Azaindole acetic acid derivatives and their use as prostaglandin D2 receptor modulators” (IDORSIA PHARMACEUTICALS LTD, priority 2014, dated 2018)",
  "key": {"[1]": {"biological_target": "T1, hCRTH2 receptor (Homo sapiens, UniProt Q9Y5Y4)", "T1 construct": "expressed in transfected cells; host or cells: HEK293 (recombinant HEK293-hCRTH2), membrane fragments", "T1 sequence (Q9Y5Y4 1-395)": "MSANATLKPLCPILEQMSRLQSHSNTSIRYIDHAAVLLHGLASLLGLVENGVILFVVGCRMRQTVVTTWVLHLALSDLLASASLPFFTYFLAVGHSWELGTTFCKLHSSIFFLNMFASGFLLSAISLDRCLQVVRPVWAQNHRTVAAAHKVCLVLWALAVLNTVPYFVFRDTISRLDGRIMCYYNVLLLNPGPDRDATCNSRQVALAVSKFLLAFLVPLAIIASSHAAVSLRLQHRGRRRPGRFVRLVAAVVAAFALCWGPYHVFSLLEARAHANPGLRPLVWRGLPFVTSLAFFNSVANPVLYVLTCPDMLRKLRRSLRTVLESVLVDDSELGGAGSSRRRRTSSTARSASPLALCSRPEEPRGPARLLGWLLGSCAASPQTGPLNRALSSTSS", "experiment": "Radioligand displacement assay in presence of human serum albumin (HSA)", "settings": "displacement of 3H-PGD2, Binding-Buffer with 0.5% human serum albumin instead of 0.1% BSA", "experimental": "(§1) First, recombinant HEK293-hCRTH2 cells were detached from culture plates into 5 ml buffer A/plate (Buffer A: 5 mM Tris, 1 mM MgCl2-6H2O pH=7.4) using a rubber policeman. Cells were then transferred into centrifugation tubes and centrifuged for 5 min at 400 g. The cell pellet was resuspended in the same buffer and tubes were frozen at 80° C. Cells were thawed and membrane fragments were generated by homogenization using a polytron homogenizer (30 seconds). The membrane fragments were then centrifuged at 3000 g for 20 minutes and resuspended in buffer C (Buffer C: 75 mM Tris, 25 mM MgCl2, 250 mM Saccharose pH 7.4). Aliquots of membrane fragments were stored at −20° C.\n(§2) Binding assay was performed in a final assay volume of 250 μl. First, 25 μl of test compound, previously diluted in Binding-Buffer (Binding-Buffer: 50 mM Tris-Base, 100 mM NaCl, 1 mM EDTA, 0.1% BSA (protease free), 0.01% NaN3, 10 mM MnCl2 pH 7.0) was placed into each well. After addition of 75 μl Binding-Buffer, 50 μl of the radioligand ^3H-PGD2 (at 2.5 nM (220.000 dpm/well) from ANAWA ART0662) was added to each well. Binding assay was started by addition of 100 μl CRTH2 membrane fragments, reaching a final concentration of 20 μg/well. For non-specific binding, PGD2 was added to the reaction mixture to […] final concentration. This assay mix was incubated for 90 minutes at room temperature and then filtered through a GF/C filter 96-well plate which was pre-soaked for 3 hours in 0.5% polyethyleneimine (PEI). The filter-wells were washed three times with ice cold Binding-Buffer. Then, 40 μl of Microscint-40 (Packard) was added to each well and the retained radioactivity quantified in a Topcount (Packard).\nRadioligand Displacement Assay-Human Serum Albumin (HSA):\nRadioligand displacement assay in presence of human serum albumin (HSA) was performed as described above, with following modifications. Binding-Buffer-HSA: Binding-buffer+0.5% Sigma Albumin from Human serum A1887 (instead of 0.1% BSA). A volume of 25 μl test compound, previously diluted in Binding-Buffer-HSA was placed into each well. After addition of 75 μl Binding-Buffer-HSA, 50 μl of ^3H-PGD2 (at 2.5 nM (220.000 dpm/well) from ANAWA ART0662) was added to each well. Remaining protocol was identical as described above."}, "[2]": {"tested_on": "eosinophils (PGD2-induced shape change)", "experiment": "Eosinophil shape change assay with human plasma", "assay_type": "cell-based", "settings": "human polymorphonuclear cells, 50% human plasma, activated with PGD2 100 nM, flow cytometry forward-scatter", "experimental": "Eosinophil Shape Change Assay with Human Plasma\nAfter obtaining informed consent, blood samples were drawn by venipuncture according to the protocol approved by the ethics committee of Basel, Switzerland. Polymorphonuclear leukocytes (containing eosinophils, basophils and neutrophils) were isolated using the Polymorphprep™ method (Axis-Shield). In brief, anticoagulated whole blood was layered onto a Polymorphprep gradient (density 1.113 g/ml) and centrifuged at 500 g for 30 min. The polymorphonuclear cell fraction was harvested and depleted for erythrocytes by hypotonic saline lysis.\nThe polymorphonuclear cells were resuspended in assay buffer (1×PBS with Ca^2+/Mg^2+ supplemented with 0.1% BSA, 10 mM HEPES, and 10 mM Glucose, pH 7.4) at 5×10^6 cells/ml and stained with anti-CD49d-APC ((APC=Allophycocyanin) for 1 hour at RT. Test compounds, at various concentrations, were preincubated 10 min in human plasma (anticoagulated with a thrombin inhibitor). Then, human plasma was added to the polymorphonuclear cells to 50% of final assay volume with polymorphonuclear cells at 4×10^6 cells/ml. After incubation for 10 minutes at 37° C., the polymorphonuclear cells were activated for 5 min at 37° C. by addition of PGD2 at 100 nM final concentration. Activation was stopped by addition of 0.5 ml paraformaldehyde (1%).\nImmediately after fixation with paraformaldehyde, the samples were analyzed by FACSCanto flow cytometer (BD Biosciences) and target cells were identified by their forward-scatter (FSC) and side-scatter (SSC) characteristics. Eosinophils were identified by the anti-CD49d-APC signal and their characteristic side-scatter (SSC) profile. Shape change responses, indicative of eosinophil activation, were quantified as the percent of cells with an increased forward-scatter."}, "[3]": {"biological_target": "T1, hCRTH2 receptor", "experiment": "hCRTH2 receptor membranes radioligand displacement assay", "settings": "displacement of 3H-PGD2 (2.5 nM), HEK293-hCRTH2 membrane fragments, Binding-Buffer with 0.1% BSA", "experimental": "Preparation of hCRTH2 Receptor Membranes and Radioligand Displacement Assay:\nas §1, §2"}},
  "data": [
    {"smiles": "O=C(O)Cn1c2c(c3nc(F)ccc31)C[C@@H](Nc1ncc(Cl)cn1)CC2", "note": "[Example 8, (S)-2-(8-((5-chloropyrimidin-2-yl)amino)-2-fluoro-6,7,8,9-tetrahydro-5H-pyrido[3,2-b]indol-5-yl)acetic acid]", "values": [
      {"measurement": "IC50", "setting": "[1]", "value": 22, "unit": "nM"},
      {"measurement": "IC50", "setting": "[2]", "value": 32, "unit": "nM"},
      {"measurement": "IC50", "setting": "[3]", "value": 19, "unit": "nM"}
    ]}
  ]
}
